Reference: ChEMBL document CHEMBL4834468, “Enantioselective Synthesis and Profiling of Potent, Nonlinear Analogues of Antimalarial Tetraoxanes E209 and N205” (ACS Med Chem Lett, 2021)
Converted amounts (≈) assume the structure as drawn.

Legend:
[1] = Aqueous solubility of compound in PBS at pH 7.4; format: physicochemical
[2] = Intrinsic clearance in rat hepatocytes measured per 10^6 cells up to 120 mins by LC-MS analysis; format: ADME, cell-based, Hepatocyte; conditions: read-out: CLH
[3] = Intrinsic clearance in human liver microsome up to 30 mins by LC-MS analysis; format: ADME; conditions: liver microsomes, read-out: CLH
Plasmodium falciparum [4] = experiment: microbe, parasite or virus in culture; conditions: D10, 72 h
Description: Antiplasmodial activity against chloroquine-sensitive Plasmodium falciparum D10 incubated for 72 hrs by spectrophotometry based parasite lactate dehydrogenase assay

Plasmodium falciparum [5] = experiment: microbe, parasite or virus in culture; conditions: W2, 72 h
Description: Antiplasmodial activity against chloroquine-resistant Plasmodium falciparum W2 incubated for 72 hrs by spectrophotometry based parasite lactate dehydrogenase assay

[6] = Solubility of compound in 0.1 M HCl; format: physicochemical
[7] = Solubility of the compound in FaSSIF; format: physicochemical
[8] = Solubility of compound in 0.1 M HCl assessed as equilibrium pH; format: physicochemical; conditions: buffer
[9] = Solubility of the compound in FaSSIF assessed as equilibrium pH; format: physicochemical; conditions: simulated gi fluid
[10] = Intrinsic clearance in mouse liver microsome by LC-MS/MS analysis; format: ADME, microsomes
[11] = Tmax in Sprague-Dawley rat at 10 mg/kg, po administered as single dose; format: ADME, organism-based; conditions: in vivo
[12] = Cmax in Sprague-Dawley rat at 10 mg/kg, po administered as single dose; format: ADME, organism-based; design: route oral, dose 10 mg/kg; conditions: in vivo
[13] = AUC (infinity) in Sprague-Dawley rat at 10 mg/kg, po administered as single dose; format: ADME, organism-based; design: time infinity, route oral, dose 10 mg/kg; conditions: in vivo
[14] = Oral bioavailability in Sprague-Dawley rat at 10 mg/kg administered as single dose; format: ADME, organism-based; conditions: in vivo
[15] = Intrinsic clearance in mouse liver microsome assessed as half life by LC-MS/MS analysis; format: ADME; conditions: microsomes
Plasmodium falciparum [16] = experiment: Antiplasmodial activity against chloroquine-sensitive Plasmodium falciparum 3D7; format: functional, organism-based

## FC1CCN(CCOc2ccc([C@@H]3CCCC4(C3)OOC3(OO4)C4CC5CC(C4)CC3C5)cc2)CC1 (some centres undefined)
[1]
  solubility: 0.1 µM (≈ 0.0502 µg/mL)
[2]
  hepatocyte CLint: 13.5 µL/min/1e6 cells
[3]
  microsomal CLint: 19.8 µL/min/mg
Plasmodium falciparum [4]
  IC50: 17.5 nM
Plasmodium falciparum [5]
  IC50: 19.2 nM

## c1cc([C@H]2CCCC3(C2)OOC2(OO3)C3CC4CC(C3)CC2C4)ccc1OCCN1CCOCC1 (some centres undefined)
[1]
  solubility: 0.1 µM (≈ 0.0486 µg/mL)
[2]
  hepatocyte CLint: 49.2 µL/min/1e6 cells
[3]
  microsomal CLint: 22.1 µL/min/mg
[6]
  solubility: 284 µg/mL (≈ 585 µM)
[7]
  solubility at 1 h: 69 µg/mL (≈ 142 µM)
[8]
  pH: 1.11
[9]
  pH: 6.42
Plasmodium falciparum [4]
  IC50: 16 nM
Plasmodium falciparum [5]
  IC50: 15.8 nM

## NC1CCN(C(=O)O[C@@H]2CCC[C@]3(C2)OOC2(O3)C3CC4CC(C3)CC2C4)CC1 (some centres undefined)
[10]; liver microsomes, read-out: CLH
  microsomal CLint: 155 µL/min/mg
Plasmodium falciparum [5]
  EC50: 1.8 nM

## c1cc(C2CCCC3(C2)OOC2(OO3)C3CC4CC(C3)CC2C4)ccc1CN1CCOCC1 (racemic)
Plasmodium falciparum [4]
  IC50: 15.4 nM
Plasmodium falciparum [5]
  IC50: 11.2 nM

## FC1CCN(Cc2ccc([C@H]3CCCC4(C3)OOC3(OO4)C4CC5CC(C4)CC3C5)cc2)CC1 (some centres undefined)
[1]
  solubility: < 0.1 µM
[2]
  hepatocyte CLint: 30.7 µL/min/1e6 cells
[3]
  microsomal CLint: 26.7 µL/min/mg
[6]
  solubility: 60 µg/mL (≈ 127 µM)
[7]
  solubility at 1 h: 189 µg/mL (≈ 401 µM)
[8]
  pH: 1.14
[9]
  pH: 6.44
Plasmodium falciparum [4]
  IC50: 16.5 nM
Plasmodium falciparum [5]
  IC50: 14.9 nM

## c1cc([C@@H]2CCCC3(C2)OOC2(OO3)C3CC4CC(C3)CC2C4)ccc1CN1CCOCC1 (some centres undefined)
[1]
  solubility: 0.1 µM (≈ 0.0456 µg/mL)
[2]
  hepatocyte CLint: 26.2 µL/min/1e6 cells
[3]
  microsomal CLint: 27.1 µL/min/mg
[6]
  solubility: 188 µg/mL (≈ 413 µM)
[7]
  solubility at 1 h: 324 µg/mL (≈ 711 µM)
[11]
  Tmax: 2 h
[12]
  Cmax: 410 ng/mL
[13]
  AUC(0-inf): 1440 ng·h/mL
[14]
  bioavailability: 76.4%
[8]
  pH: 1.12
[9]
  pH: 6.43
Plasmodium falciparum [4]
  IC50: 12.5 nM
Plasmodium falciparum [5]
  IC50: 11.2 nM

## c1cc([C@H]2CCCC3(C2)OOC2(OO3)C3CC4CC(C3)CC2C4)ccc1CN1CCOCC1 (some centres undefined)
[1]
  solubility: 0.1 µM (≈ 0.0456 µg/mL)
[2]
  hepatocyte CLint: 50.2 µL/min/1e6 cells
[3]
  microsomal CLint: 19.7 µL/min/mg
[6]
  solubility: 165 µg/mL (≈ 362 µM)
[7]
  solubility at 1 h: 248 µg/mL (≈ 544 µM)
[8]
  pH: 1.13
[9]
  pH: 6.42
Plasmodium falciparum [4]
  IC50: 15.2 nM
Plasmodium falciparum [5]
  IC50: 15.2 nM

## FC1CCN(Cc2ccc(C3CCCC4(C3)OOC3(OO4)C4CC5CC(C4)CC3C5)cc2)CC1 (racemic)
Plasmodium falciparum [4]
  IC50: 15.7 nM
Plasmodium falciparum [5]
  IC50: 14.4 nM

## CC(C)(N)CNC(=O)C[C@H]1CC[C@]2(CC1)OO[C@]1(O2)C2CC3CC(C2)CC1C3 [OZ277]
[10]; microsomes
  CLH: 5.4 µL/min/mg
[15]
  t1/2: 2.13 h

## c1cc([C@@H]2CCCC3(C2)OOC2(OO3)C3CC4CC(C3)CC2C4)ccc1OCCN1CCOCC1 (some centres undefined)
[1]
  solubility: 0.1 µM (≈ 0.0486 µg/mL)
[2]
  hepatocyte CLint: 21.6 µL/min/1e6 cells
[3]
  microsomal CLint: 22.2 µL/min/mg
Plasmodium falciparum [4]
  IC50: 17.4 nM
Plasmodium falciparum [5]
  IC50: 16 nM

## C[C@H]1[C@@H](O)O[C@@H]2O[C@@]3(C)CC[C@H]4[C@H](C)CC[C@@H]1[C@@]24OO3 [ARTENIMOL]
Plasmodium falciparum [4]
  IC50: 2.59 nM
Plasmodium falciparum [5]
  IC50: 1.02 nM

## c1cc(C2CCC3(CC2)OOC2(OO3)C3CC4CC(C3)CC2C4)ccc1CN1CCOCC1 (centres undefined)
[1]
  solubility: 0.106 µM (≈ 0.0483 µg/mL)
[6]
  solubility: 21.2 µg/mL (≈ 46.5 µM)
[7]
  solubility at 1 h: 24 µg/mL (≈ 52.7 µM)
[11]
  Tmax: 4.33 h
[12]
  Cmax: 136 ng/mL
[13]
  AUC(0-inf): 608 ng·h/mL
[14]
  bioavailability: 41.3%
[8]
  pH: 1
[9]
  pH: 6.1
Plasmodium falciparum [4]
  IC50: 9.38 nM
Plasmodium falciparum [5]
  IC50: 8.65 nM

## FC1CCN(Cc2ccc(C3CCC4(CC3)OOC3(OO4)C4CC5CC(C4)CC3C5)cc2)CC1 (centres undefined)
[6]
  solubility: 101 µg/mL (≈ 214 µM)
[7]
  solubility at 1 h: 14.8 µg/mL (≈ 31.4 µM)
[8]
  pH: 1
[9]
  pH: 6.1
Plasmodium falciparum [4]
  IC50: 16.1 nM
Plasmodium falciparum [5]
  IC50: 11.7 nM

## FC1CCN(Cc2ccc([C@@H]3CCCC4(C3)OOC3(OO4)C4CC5CC(C4)CC3C5)cc2)CC1 (some centres undefined)
[1]
  solubility: 0.1 µM (≈ 0.0472 µg/mL)
[2]
  hepatocyte CLint: 19.2 µL/min/1e6 cells
[3]
  microsomal CLint: 35.9 µL/min/mg
[6]
  solubility: 95 µg/mL (≈ 201 µM)
[7]
  solubility at 1 h: 195 µg/mL (≈ 413 µM)
[8]
  pH: 1.12
[9]
  pH: 6.43
Plasmodium falciparum [4]
  IC50: 10.6 nM
Plasmodium falciparum [5]
  IC50: 10.3 nM

## c1cc([C@H]2CC[C@]3(CC2)OO[C@]2(O3)C3CC4CC(C3)CC2C4)ccc1OCCN1CCOCC1 [ARTEFENOMEL]
[1]
  solubility: 0.85 µM (≈ 0.399 µg/mL)
[7]
  solubility at 1 h: 120 µg/mL (≈ 256 µM)
Plasmodium falciparum [16]
  IC50: 5.1 nM
[9]
  pH: 6.6

## FC1CCN(CCOc2ccc(C3CCCC4(C3)OOC3(OO4)C4CC5CC(C4)CC3C5)cc2)CC1 (racemic)
Plasmodium falciparum [4]
  IC50: 12.9 nM
Plasmodium falciparum [5]
  IC50: 12.8 nM

## c1cc(C2CCC3(CC2)OOC2(OO3)C3CC4CC(C3)CC2C4)ccc1OCCN1CCOCC1 (centres undefined)
Plasmodium falciparum [4]
  IC50: 12.4 nM
Plasmodium falciparum [5]
  IC50: 10.1 nM

## c1cc(C2CCCC3(C2)OOC2(OO3)C3CC4CC(C3)CC2C4)ccc1OCCN1CCOCC1 (centres undefined)
Plasmodium falciparum [4]
  IC50: 16.4 nM
Plasmodium falciparum [5]
  IC50: 17.7 nM

## FC1CCN(CCOc2ccc([C@H]3CCCC4(C3)OOC3(OO4)C4CC5CC(C4)CC3C5)cc2)CC1 (some centres undefined)
[1]
  solubility: 0.1 µM (≈ 0.0502 µg/mL)
[2]
  hepatocyte CLint: 16.7 µL/min/1e6 cells
[3]
  microsomal CLint: 26.3 µL/min/mg
[6]
  solubility: 1270 µg/mL (≈ 2530 µM)
[7]
  solubility at 1 h: 413 µg/mL (≈ 823 µM)
[8]
  pH: 1.14
[9]
  pH: 6.43
Plasmodium falciparum [4]
  IC50: 20.8 nM
Plasmodium falciparum [5]
  IC50: 22.5 nM

## FC1CCN(CCOc2ccc(C3CCC4(CC3)OOC3(OO4)C4CC5CC(C4)CC3C5)cc2)CC1 (centres undefined)
[1]
  solubility: 0.1 µM (≈ 0.0502 µg/mL)
[2]
  hepatocyte CLint: 12 µL/min/1e6 cells
[3]
  microsomal CLint: 23 µL/min/mg
[6]
  solubility: 1790 µg/mL (≈ 3570 µM)
[7]
  solubility at 1 h: 215 µg/mL (≈ 429 µM)
[8]
  pH: 1.13
[9]
  pH: 6.42
Plasmodium falciparum [4]
  IC50: 8.96 nM
Plasmodium falciparum [5]
  IC50: 8.49 nM
